# Results reported in ChEMBL document CHEMBL5370688, “Development of HC-258, a Covalent Acrylamide TEAD Inhibitor That Reduces Gene Expression and Cell Migration” (ACS Med Chem Lett, 2023).
# Activity calls are given as the source filed them. No cut-off for these calls is given here.
# Key:
# [1] = tested on: MDA-MB-231; assay: Inhibition of cell migration in human MDA-MB-231 cells at 10 uM incubated for 48 hrs by xCELLigence RTCA system analysis; assay type: functional, cell-based
# [2] = tested on: YAP1-TEAD1 (Homo sapiens); assay: Inhibition of C-terminal NanoLuc-tagged TEAD1 (unknown origin)/C-terminal Halo-Tagged YAP1 (unknown origin) protein-protein interaction transfected in HEK293T cells at 10 uM using Nano-Glo as substrate pre incubated for 4 hrs followed by substrate addition and measured within 10 mins by NanoBRET …; details: time 250.0 min
# [3] = tested on: MDA-MB-231; assay: Inhibition of TEAD in human MDA-MB-231 cells assessed as reduction in NF2 gene expression level at 10 uM measured after 48 hrs by SYBR green staining based RT-qPCR analysis; assay type: cell-based
# [4] = tested on: MDA-MB-231; assay: Cytotoxicity against human MDA-MB-231 cells at 10 uM; assay type: functional, cell-based
# [5] = biological target: Transcriptional enhancer factor TEF-3 (Homo sapiens) (UniProt Q15561); assay: Binding affinity to TEAD4 (unknown origin) assessed as covalent adduct formation at 0.3 mM incubated for 2 hrs by Agilent LC/MSD Time-of-Flight Mass Spectrometric analysis
# [6] = biological target: Transcriptional enhancer factor TEF-3 (Homo sapiens) (UniProt Q15561); assay: Displacement of bodipy-PA from TEAD4 (unknown origin) measured after 30 mins by FP assay
# [7] = biological target: Transcriptional enhancer factor TEF-3 (Homo sapiens) (UniProt Q15561); assay: Binding affinity to TEAD4 (unknown origin) assessed as change in aggregation temperature at 25 uM by DSLS thermal shift assay
# [8] = tested on: MDA-MB-231; assay: Inhibition of TEAD in human MDA-MB-231 cells assessed as reduction in CTGF gene expression level at 10 uM measured after 48 hrs by SYBR green staining based RT-qPCR analysis; assay type: cell-based
# [9] = tested on: MDA-MB-231; assay: Inhibition of TEAD in human MDA-MB-231 cells assessed as reduction in AXL gene expression level at 10 uM measured after 48 hrs by SYBR green staining based RT-qPCR analysis; assay type: cell-based
# [10] = tested on: MDA-MB-231; assay: Inhibition of TEAD in human MDA-MB-231 cells assessed as reduction in Cyr61 gene expression level at 10 uM measured after 48 hrs by SYBR green staining based RT-qPCR analysis; assay type: cell-based
# [11] = biological target: Transcriptional enhancer factor TEF-3 (Homo sapiens) (UniProt Q15561); assay: Binding affinity to TEAD4 (unknown origin) assessed as partial covalent adduct formation at 0.3 mM incubated for 2 hrs by Agilent LC/MSD Time-of-Flight Mass Spectrometric analysis
# [12] = biological target: Transcriptional enhancer factor TEF-3 (Homo sapiens) (UniProt Q15561); assay: Displacement of bodipy-PA from TEAD4 (unknown origin) measured after 30 mins by FP assay relative to control
# Transcriptional enhancer factor TEF-3 (Homo sapiens), sequence (Q15561 whole entry): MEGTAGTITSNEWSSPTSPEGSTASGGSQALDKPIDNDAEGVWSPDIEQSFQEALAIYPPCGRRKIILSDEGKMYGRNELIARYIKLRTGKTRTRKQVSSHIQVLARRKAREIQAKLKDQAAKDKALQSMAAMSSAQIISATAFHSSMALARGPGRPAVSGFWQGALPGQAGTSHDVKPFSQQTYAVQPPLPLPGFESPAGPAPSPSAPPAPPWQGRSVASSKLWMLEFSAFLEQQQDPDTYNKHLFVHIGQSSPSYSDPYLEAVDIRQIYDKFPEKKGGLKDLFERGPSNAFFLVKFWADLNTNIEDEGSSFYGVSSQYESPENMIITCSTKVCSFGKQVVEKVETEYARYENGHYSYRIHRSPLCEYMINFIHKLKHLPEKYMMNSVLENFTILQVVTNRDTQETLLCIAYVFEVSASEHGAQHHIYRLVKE
SMILES,inhibition [1],inhibition [2],inhibition [3],Activity [4],Activity [5],K [6],deltaT [7],inhibition [8],inhibition [9],inhibition [10],Activity [11],inhibition [12]
O=C(O)c1ccccc1Nc1cccc(C(F)(F)F)c1,inactive,,,,,,,,,,,
CCCCCOc1cccc(Nc2cccc(NC(C)=O)c2)c1,inactive,inactive,inactive,inactive,inactive,> 25 µM,2.5 °C,inactive,inactive,inactive,,
C=CC(=O)Nc1ccccc1Nc1cccc(CCCCCC)c1,,,Active,Active,,2.7 µM,,Active,Active,Active,Active,
CCCCCOc1cccc(Nc2cccc(NC(=O)CCl)c2)c1,,,,inactive,Active,3.1 µM,,,,,,
CCCCCCc1cccc(Nc2ccccc2NC(=O)C=C(C)C)c1,,,,,inactive,,,,,,,
CCCCCCc1cccc(Nc2cccc(NC(=O)CCl)c2)c1,,,inactive,inactive,Active,1 µM,,Active,inactive,Active,,
C=CC(=O)Nc1cccc(Nc2cccc(OCCCCC)c2)c1,Active,inactive,Active,inactive,Active,3.6 µM,,Active,Active,Active,,
CCCCCCc1cccc(Nc2cccc(NC(=O)C=C(C)C)c2)c1,,,,,inactive,,,,,,,
C=CC(=O)Nc1cccc(Nc2cccc(CCCCCC)c2)c1,,,Active,Active,Active,1.3 µM,,Active,Active,Active,,
CCCCCCc1cccc(Nc2ccccc2NC(=O)CCl)c1,,,,,Active,2.3 µM,,,,,,80%
C=CC(=O)Nc1ccccc1Nc1cccc(OCCCCC)c1,Active,,Active,inactive,,> 20 µM,,Active,Active,Active,Active,
CCCCCCc1cccc(Nc2cccc(NC(=O)C3CC3)c2)c1,,,,,inactive,,,,,,,
